Consider 8 compounds from PubChem BioAssay AID1963838 (Molecular Pharmacology Branch, DTP, NCI, 2024).

Several values for one entry are separate records, joined by “and”; a condition that tells them apart may be missing. Equal values may be shown once.

As a reminder, the viability, T/C is the result in the treated group divided by that in the control group, in per cent. In general, IC50 refers to the point on the concentration scale where inhibition reaches its midpoint.

In this experiment the test system is 855422-203-R-J1-PDC complex spheroid viability. The experiment is described as follows: Anticancer human tumor 855422-203-R-J1-PDC patient-derived bladder carcinoma cell line growth inhibition [POLQ]. Particulars: for viability, T/C: stronger effect = lower value. The method, then: Multicellular complex tumor spheroid response to Polymerase (POL) inhibitors (novobiocin, ART-558, RP6685) in combination with a variety of drugs and investigational agents in selected tumor cell lines
The POL inhibitors (novobiocin, ART-558, and RP6685) were evaluated both individually and in combination with standard of care and investigational anticancer small molecules within a complex spheroid model of solid tumors. . Complex spheroids include a stromal component modeled by human endothelial cells (HUVEC) and fibroblasts modeled by human mesenchymal stem cells (MSCs). The concentration ranges selected for each drug and investigational agent were based upon clinically achievable concentrations if the clinical Cmax of the agent was known.
Compounds. The drugs and investigational agents: novobiocin (NSC847541), ART-558 (NSC835418), RP-6685 (NSC848927), peposertib (NSC802822), ceralasertib (NSC780249), elimusertib (NSC800525), camonsertib (NSC841442), AZD-1390 (NSC803789), olaparib (NSC753686), talazoparib (NSC767125), rucaparib (NSC756644), sotorasib (NSC818433), MRTX-1133 (NSC836407), SN-38 (NSC673596), topotecan (NSC609699), epotoside (NSC141540), doxorubicin (NSC123127), gemcitabine (NSC613327), 5-fluorouracil (NSC19893), paclitaxel (NSC125973), vemurafenib (NSC761431), MSA-2 (NSC828583), SN-011 (NSC837082), adavosertib (NSC754352), prexasertib (NSC758257), carboplatin (NSC241240) and oxaliplatin (NSC266046), were obtained from the National Cancer Institute (NCI) Developmental Therapeutics Program Chemical Repository (21). The FDA-approved anticancer drug set is available from the Developmental Therapeutics Program at https://dtp.cancer.gov/organization/dscb/obtaining/. […] The stock solutions were prepared in dimethyl sulfoxide (DMSO, Sigma-Aldrich, St. Louis, MO, cat. D2650), except for the platinum compounds which were prepared in saline (Quality Biological, Gaithersburg, MD, cat. 114-055-101), at 800-fold the tested concentration and stored at -70 degrees C prior to their use. All drugs and investigational agents were tested over a range starting from a high concentration at or near the clinical Cmax and decreasing in half-log increments. If the clinical Cmax for an agent had not been determined, the highest concentration tested was 10 microM, except for SN-38, which was tested at a high concentration of 1 microM.
Cell Culture. All cells were maintained in an incubator at 37 degrees C and 5% CO2 with 95% humidity. The PDC lines were cultured according to standard operating procedures established by the NCI PDMR (https://pdmr.cancer.gov). Table 3 of the manuscript, lists the cell lines along with the number of the three cell types plated to form the mct-spheroids and media for tumor cell growth. After thawing, all PDC lines, except 997537-175-T-J1-PDC and 415267-285-R-J2-PDC, were cultured in Matrigel-coated flasks prepared with a working solution of 1X Ham's F-12 nutrient mix, without supplementation (Thermo Fisher Scientific, cat. 11765054), 100 U/mL penicillin-streptomycin (Thermo Fisher Scientific, cat. 15140122), and 2.5% Matrigel (Corning Inc., Corning, NY, cat. 354248) for the first three passages. The two PDC lines 997537-175-T-J1-PDC and 415267-285-R-J2-PDC were cultured on uncoated flasks. The 857933-349-R-J2-PDC line was cultured in 6C/Colon 1B media containing advanced DMEM/F-12 (Thermo Fisher Scientific, cat. 12634028), 10 mM HEPES (Thermo Fisher Scientific, cat. 15630080), 1X GlutaMAX supplement (Thermo Fisher Scientific, cat. 35050061), 0.1 mg/mL primocin (InvivoGen, San Diego, CA, cat. ant-pm-2), 10% defined fetal bovine serum, heat inactivated (HyClone Laboratories Inc., Logan, UT, cat. SH30070.03HI), 50% L-WRN conditioned media (ATCC, cat. CRL-3276), 1.25 mM N-Acetyl-L-cysteine (Sigma-Aldrich, cat. A9165), 10 mM nicotinamide (Sigma-Aldrich, cat. N0636), 1X B-27 supplement (Thermo Fisher Scientific, cat. 17504044), 1X N-2 supplement (Thermo Fisher Scientific, cat. […]
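Further: spheroids exposed to compounds for seven days before readout.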

On to `C#Cc1c(F)ccc2cc(O)cc(-c3ncc4c(N5CC6CCC(C5)N6)nc(OCC56CCCN5CC(F)C6)nc4c3F)c12` (stereo unspecified), for which the viability, T/C (compound 0.0316 µM) was 120% and 105% and 97.1%; the viability, T/C (compound 0.1 µM) was 106% and 100% and 107%; the viability, T/C (compound 0.316 µM) was 87.3% and 94.5% and 105%; the viability, T/C (compound 1 µM) was 98.4% (2×) and 94.2%; the viability, T/C (compound 3.16 µM) is 97.4% and 109% and 119%; the viability, T/C (compound 10 µM) is 104% and 98% and 121%. Also, the concentration for half-maximal inhibition (IC50) (curve of compound) was above 10000 nM.

`C=CC(=O)N1CCN(c2nc(=O)n(-c3c(C)ccnc3C(C)C)c3nc(-c4c(O)cccc4F)c(F)cc23)C(C)C1` (stereo unspecified): the viability, T/C (compound 0.0316 µM) was 106% and 101% and 103%; the viability, T/C (compound 0.1 µM) is 89% and 126% and 115%; the viability, T/C (compound 0.316 µM) is 117% and 111% and 114%; the viability, T/C (compound 1 µM) was 101% and 130% and 102%; the viability, T/C (compound 3.16 µM) was 129% and 144% and 132%; the viability, T/C (compound 10 µM) is 127% and 135% and 113%. Also, the IC50 (curve of compound) was above 10000 nM.

Take `CC1COCCN1c1cc(C2(O)CC3CCC(C2)O3)c2cnn(-c3ccn[nH]3)c2n1` (stereo unspecified): the viability, T/C is, setting by setting: (compound 0.0316 µM) 98.5% and 101% and 111%; (compound 0.1 µM) 49.5% and 43.5% and 74.9%; (compound 0.316 µM) 15.2% and 14.2% and 20.3%; (compound 1 µM) 10.6% and 9.31% and 13.1%; (compound 3.16 µM) 6.4% and 7.44% and 9.6%; (compound 10 µM) 3.63% and 5.73% and 6.18%. The IC50 (curve of compound) was 98.2 nM and 87.6 nM and 170 nM.

For the compound `CCc1cc2c(N3CCc4c(cc(Cn5ccnc5)cc4-c4cn(C)nc4C(F)(F)F)C3=O)cc(C)nc2c(OC)n1`, the viability, T/C is, setting by setting: (compound 0.0316 µM) 89.8% and 99.4% and 115%; (compound 0.1 µM) 81.6% and 103% and 101%; (compound 0.316 µM) 74.5% and 132% and 120%; (compound 1 µM) 62.8% and 85.8% and 94.5%; (compound 3.16 µM) 49.1% and 62% and 75.6%; (compound 10 µM) 26.1% and 50.8% and 38.6%. Also, for the setting “curve of compound”, the IC50 was 2620 nM and > 10000 nM and 6960 nM.

Take `CCc1cc2c(N3CCc4c(cc(Cn5ccnc5)cc4-c4cn(C)nc4C(F)(F)F)C3=O)ccnc2c(OC)n1`: the viability, T/C runs as follows: (compound 0.0316 µM) 83.3% and 126% and 119%; (compound 0.1 µM) 84.9% and 133% and 116%; (compound 0.316 µM) 73.8% and 136% and 139%; (compound 1 µM) 74.3% and 100% and 104%; (compound 3.16 µM) 47.2% and 73.1% and 78.9%; (compound 10 µM) 32.6% and 47.8% and 46.6%. Under “curve of compound”, the IC50 was 2870 nM and 9660 nM and 8960 nM.

Turning to `COc1cc2cc(C(=O)CCC(=O)O)sc2cc1OC`, the viability, T/C by setting is: (compound 0.0316 µM) 93.5% and 102% and 106%; (compound 0.1 µM) 128% and 88.2% and 104%; (compound 0.316 µM) 98.3% and 108% and 107%; (compound 1 µM) 97.8% and 87.2% and 98.9%; (compound 3.16 µM) 111% (2×) and 106%; (compound 10 µM) 112% and 119% and 102%. In addition, the IC50 (curve of compound) was above 10000 nM.

As for `O=C(Nc1ccc(O)c(NS(=O)(=O)c2ccc(F)cc2)c1)c1ccc(-c2ccccc2)cc1`, the viability, T/C (compound 0.0316 µM) was 106% and 92.6% and 110%; the viability, T/C (compound 0.1 µM) is 118% and 99.2% and 113%; the viability, T/C (compound 0.316 µM) was 98.8% and 110% and 113%; the viability, T/C (compound 1 µM) is 112% and 108% and 97.7%; the viability, T/C (compound 3.16 µM) was 99.4% and 106% and 92.8%; the viability, T/C (compound 10 µM) is 74% and 70.5% and 45.6%. Also, the IC50 (curve of compound) was > 10000 nM and 9080 nM.

In the case of `CC(=O)O[C@H]1C(=O)[C@@]2(C)[C@H]([C@H](OC(=O)c3ccccc3)[C@]3(O)C[C@H](OC(=O)[C@H](O)[C@@H](NC(=O)c4ccccc4)c4ccccc4)C(C)=C1C3(C)C)[C@]1(OC(C)=O)CO[C@@H]1C[C@@H]2O` + COC1C(OC(N)=O)C(O)C(Oc2ccc3c(O)c(NC(=O)c4ccc(O)c(CC=C(C)C)c4)c(=O)oc3c2C)OC1(C)C, the half-maximal inhibitory concentration (IC50) runs as follows: (curve of first compound, second compound 0.0316 µM) below 9.49 nM; (curve of first compound, second compound 0.1 µM) below 9.49 nM; (curve of first compound, second compound 0.316 µM) below 9.49 nM; (curve of first compound, second compound 1 µM) below 9.49 nM; (curve of first compound, second compound 3.16 µM) below 9.49 nM; (curve of first compound, second compound 10 µM) below 9.49 nM. Further, the viability, T/C was 5.68% (second compound 0.0316 µM, first compound 0.00949 µM); 5.82% (second compound 0.0316 µM, first compound 0.03 µM); 5% (second compound 0.0316 µM, first compound 0.0949 µM); 6.46% (second compound 0.0316 µM, first compound 0.3 µM); 5.84% (second compound 0.0316 µM, first compound 0.949 µM); 5.17% (second compound 0.0316 µM, first compound 3 µM). The viability, T/C (second compound 0.1 µM, first compound 0.00949 µM) was 5.77%; the viability, T/C (second compound 0.1 µM, first compound 0.03 µM) was 6.65%; the viability, T/C (second compound 0.1 µM, first compound 0.0949 µM) is 5.15%; the viability, T/C (second compound 0.1 µM, first compound 0.3 µM) is 4.93%; the viability, T/C (second compound 0.1 µM, first compound 0.949 µM) is 5.98%; the viability, T/C (second compound 0.1 µM, first compound 3 µM) was 4.74%. Also, the viability, T/C reads like this: (second compound 0.316 µM, first compound 0.00949 µM) 8.12%; (second compound 0.316 µM, first compound 0.03 µM) 6.43%; (second compound 0.316 µM, first compound 0.0949 µM) 5.94%; (second compound 0.316 µM, first compound 0.3 µM) 4.73%; (second compound 0.316 µM, first compound 0.949 µM) 4.96%; (second compound 0.316 µM, first compound 3 µM) 5.68%. Also, the viability, T/C is, setting by setting: (second compound 1 µM, first compound 0.00949 µM) 7.33%; (second compound 1 µM, first compound 0.03 µM) 6.18%; (second compound 1 µM, first compound 0.0949 µM) 5.96%; (second compound 1 µM, first compound 0.3 µM) 5.56%; (second compound 1 µM, first compound 0.949 µM) 6.11%; (second compound 1 µM, first compound 3 µM) 6.43%. The viability, T/C runs as follows: (second compound 3.16 µM, first compound 0.00949 µM) 6.84%; (second compound 3.16 µM, first compound 0.03 µM) 6.73%; (second compound 3.16 µM, first compound 0.0949 µM) 5.34%; (second compound 3.16 µM, first compound 0.3 µM) 5.02%; (second compound 3.16 µM, first compound 0.949 µM) 5.62%; (second compound 3.16 µM, first compound 3 µM) 6.32%. In addition, the viability, T/C is, setting by setting: (second compound 10 µM, first compound 0.00949 µM) 7.25%; (second compound 10 µM, first compound 0.03 µM) 6.33%; (second compound 10 µM, first compound 0.0949 µM) 5.51%; (second compound 10 µM, first compound 0.3 µM) 5.78%; (second compound 10 µM, first compound 0.949 µM) 5.59%; (second compound 10 µM, first compound 3 µM) 6.4%.
